Experimental data as given in PMC11167041, “Purification, characterization and three-dimensional structure prediction of multicopper oxidase Laccases from Trichoderma lixii FLU1 and Talaromyces pinophilus FLU12” (Scientific Reports, 2024).
Read-outs that look alike come from different tables or passages of the source.

How the values were obtained:
[1] = test system: T1, Laccase from Trichoderma lixii FLU1 (TlFLU1); experiment: spectrophotometric oxidation assay, […] nm, Michaelis-Menten fit; type: biochemical; conditions: 50 mM acetate buffer pH 5, 30 °C; substrate varied 1-5 mM
T1 construct: native extracellular enzyme purified from culture; monomer, 44 kDa (SDS-PAGE)

[2] = test system: T2, Laccase from Talaromyces pinophilus FLU12 (TpFLU12); experiment: as above; type: biochemical; conditions: 50 mM acetate buffer pH 7, 50 °C; substrate varied 1-5 mM
T2 construct: native extracellular enzyme purified from culture

[3] = test system: Laccase from Trichoderma lixii FLU1 (TlFLU1); conditions: 50 mM acetate buffer pH 5, 30 °C; substrate varied 1-5 mM
[4] = test system: T1, Laccase from Trichoderma lixii FLU1 (TlFLU1); experiment: spectrophotometric oxidation assay, […] nm, Michaelis-Menten fit; type: biochemical; conditions: 50 mM acetate buffer pH 5, 30 °C; substrate varied 1-5 mM; remark: listed apart in the source
[5] = test system: T2, Laccase from Talaromyces pinophilus FLU12 (TpFLU12); experiment: as above; type: biochemical; conditions: 50 mM acetate buffer pH 7, 50 °C; substrate varied 1-5 mM; remark: listed apart in the source
[6] = test system: T1, Laccase from Trichoderma lixii FLU1 (TlFLU1); experiment: as above; type: biochemical; conditions: 50 mM acetate buffer pH 5, 30 °C; substrate varied 1-5 mM; remark: listed apart in the source

SMILES: COc1cccc(OC)c1O [2,6-DMP, 2,6-dimethoxyphenol]
- Km [1]: 13 µM

SMILES: CCn1c(=NN=c2sc3cc(S(=O)(=O)O)ccc3n2CC)sc2cc(S(=O)(=O)O)ccc21 [ABTS, 2,2-azino-bis-(3-ethyl-benzothiazoline-6-sulphonic acid)]
- Km [2]: 8.2 µM
- Km [3]: 10.8 µM

SMILES: O=C(O)/C=C/c1ccc(O)c(O)c1 [caffeic acid]
- Km [4]: 43 µM
- Km [5]: 38.6 µM

SMILES: COc1ccccc1O [guaiacol]
- Km [6]: 12.7 µM
